We go through 23 compounds from US8829185B2 (Bayer HealthCare LLC, priority 2005, dated 2014).

The assay has as its target T1, FGFR1-GST (Homo sapiens, UniProt P11362).
T1 construct: GST; made in house
The experiment in a line: FGFR-1 TR-FRET biochemical assay. On the procedure: FGFR-1 TR-FRET Biochemical Assay
The FGFR-1 Assay was performed on half well 96-well opaque plates (Costar 3915) in a LANCE format. LANCE is a homogenous time resolved fluormetry based application available through Perkin Elmer. For this assay, 50 uL reactions were set up using: 0.6 uM ATP (Sigma), 25 nM poly GT-biotin (CIS BIO International), 2 nM Eu-labelled phospho-Tyr Ab (PY20 PerkinElmer), 10 nM Streptavidin-APC (Perkin Elmer), 5 nM FGFR1-GST (generated by DRT, Bayer Healthcare), 1% DMSO, 50 mM HEPES pH 7.5, 10 mM MgCl2, 0.1 mM EDTA, 0.015% Brij, 0.1 mg/ml BSA, 0.1% B-mercaptoethanol. All reactions were initiated with the addition of enzyme and were left to incubate for one hour at room temperature. Time-resolved fluorescence was then read on a Perkin Elmer VictorV Multilabel counter. The reading protocol uses an excitation wavelength at 340 nm and emission reads at both 615 and 665 nm. Signal was calculated as a ratio: (Fluorescence at 665 nm/Fluorescence at […])*10000 for each well. The background control used for this assay is the signal produced with all assay components excluding ATP. For IC50 generation, compounds were added prior to the enzyme initiation. A 50-fold stock plate was made with compounds serially diluted 1:5 in a 50% DMSO/50% dH2O solution. A 1 μL addition of the stock to the assay wells gave final compound concentrations ranging from 10 μM −0.128 nM in 1% DMSO. The data were expressed as percent inhibition: % inhibition=100−((Signal with inhibitor-background)/(Signal without inhibitor−background))*100.
(TR-FRET usually uses a lanthanide donor and a delayed reading to cut background.)

T1 sequence (P11362 22-822): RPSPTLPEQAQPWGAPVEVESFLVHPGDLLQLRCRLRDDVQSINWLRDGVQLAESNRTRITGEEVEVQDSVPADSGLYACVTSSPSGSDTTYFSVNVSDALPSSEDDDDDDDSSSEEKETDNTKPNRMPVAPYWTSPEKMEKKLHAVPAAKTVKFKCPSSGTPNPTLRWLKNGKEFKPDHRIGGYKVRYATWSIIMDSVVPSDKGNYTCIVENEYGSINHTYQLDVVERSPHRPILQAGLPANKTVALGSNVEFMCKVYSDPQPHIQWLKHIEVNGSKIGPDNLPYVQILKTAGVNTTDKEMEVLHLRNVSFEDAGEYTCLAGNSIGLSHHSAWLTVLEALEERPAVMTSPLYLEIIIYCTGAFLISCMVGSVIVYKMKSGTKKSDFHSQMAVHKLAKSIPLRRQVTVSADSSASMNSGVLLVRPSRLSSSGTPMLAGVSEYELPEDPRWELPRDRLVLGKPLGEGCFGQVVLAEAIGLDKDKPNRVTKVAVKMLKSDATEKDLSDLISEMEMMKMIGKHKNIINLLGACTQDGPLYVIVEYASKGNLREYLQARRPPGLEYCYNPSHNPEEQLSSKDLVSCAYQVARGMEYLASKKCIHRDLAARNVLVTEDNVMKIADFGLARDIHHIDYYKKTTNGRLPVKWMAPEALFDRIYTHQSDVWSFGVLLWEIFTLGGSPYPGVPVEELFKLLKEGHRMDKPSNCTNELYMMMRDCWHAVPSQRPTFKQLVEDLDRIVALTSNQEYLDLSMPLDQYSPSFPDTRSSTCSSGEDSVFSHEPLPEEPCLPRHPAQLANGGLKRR

For orientation: IC50 means the concentration that gives 50% inhibition. High values mean weaker potency, low ones greater potency. The compound `COCc1c(-c2ccc(NC(=O)Nc3cc(C(F)(F)F)ccc3Cl)cc2)c2c(N)ncnn2c1CN1CCOCC1` [Example 49, N-{4-[4-amino-6-(methoxymethyl)-7-(morpholin-4-ylmethyl)pyrrolo[2,1-f][1,2,4]triazin-5-yl]phenyl}-N′-[2-chloro-5-(trifluoromethyl)phenyl]urea] registered a half-inhibitory concentration (IC50) (bounds given in nM) of 10 to 100 nM.

`Nc1ncnn2c(CN3CCOCC3)c(Cl)c(-c3ccc(NC(=O)Nc4cc(C(F)(F)F)ccn4)c(F)c3)c12` [Example 158, N-{4-[4-amino-6-chloro-7-(morpholin-4-ylmethyl)pyrrolo[2,1-f][1,2,4]triazin-5-yl]-2-fluorophenyl}-N′-[4-(trifluoromethyl)pyridin-2-yl]urea] had an IC50 (bounds given in nM) below 10 nM.

In the case of `N#CCc1c(-c2ccc(NC(=O)Nc3cc(C(F)(F)F)ccc3F)cc2)c2c(N)ncnn2c1CN1CCNCC1` [Example 75, N-(4-{4-amino-6-(cyanomethyl)-7-(piperazin-1-ylmethyl)pyrrolo[2,1-f][1,2,4]triazin-5-yl}phenyl)-N′-[2-fluoro-5-(trifluoromethyl)phenyl]urea], the half-maximal inhibitory concentration (IC50) (bounds given in nM) was below 10 nM.

Take `N#CCc1c(-c2ccc(NC(=O)Nc3cc(C(F)(F)F)ccn3)cc2)c2c(N)ncnn2c1CN1CCOCC1` [Example 63, N-{4-[4-amino-6-(cyanomethyl)-7-(morpholin-4-ylmethyl)-pyrrolo[2,1-f][1,2,4]triazin-5-yl]phenyl}-N′-[4-(trifluoromethyl)-pyridin-2-yl]urea]: the IC50 (bounds given in nM) was below 10 nM.

Where the note is “bounds given in nM”, `CN1CCN(Cc2c(-c3cnco3)c(-c3ccc(NC(=O)Nc4cc(C(F)(F)F)ccc4F)cc3)c3c(N)ncnn23)CC1` [Example 31, N-4-[4-amino-7-[(4-methylpiperazin-1-yl)methyl]-6-(1,3-oxazol-5-yl)pyrrolo[2,1-f][1,2,4]triazin-5-yl]phenyl-N′-[2-fluoro-5-(trifluoromethyl)phenyl]urea] came in with an IC50 below 10 nM.

`Cc1cc(-c2c(C)c(CN3CCOCC3)n3ncnc(N)c23)ccc1NC(=O)Nc1cc(C(F)(F)F)ccn1` [Example 119, N-{4-[4-amino-6-methyl-7-(morpholin-4-ylmethyl)pyrrolo[2,1-f][1,2,4]triazin-5-yl]-2-methylphenyl}-N′-[4-(trifluoromethyl)pyridin-2-yl]urea] displayed an IC50 (bounds given in nM) below 10 nM.

For `COCCNCc1c(-c2ccc(NC(=O)Nc3cc(C(F)(F)F)ccc3F)cc2)c2c(N)ncnn2c1CN1CCOCC1` [Example 108, N-4-[4-amino-6-[(2-methoxyethyl)amino]methyl-7-(morpholin-4-ylmethyl)pyrrolo[2,1-f][1,2,4]triazin-5-yl]phenyl-N′-[2-fluoro-5-(trifluoromethyl)phenyl]urea], the IC50 (bounds given in nM) was above 100 nM and the IC50 (upper bound in μM) was below 1000 nM.

Regarding `COCc1c(-c2ccc(NC(=O)Nc3cc(C(F)(F)F)ccc3F)c(F)c2)c2c(N)ncnn2c1CN1CCNC(=O)C1` [Example 44, N-(4-{4-amino-6-(methoxymethyl)-7-[(3-oxopiperazin-1-yl)methyl]pyrrolo[2,1-f][1,2,4]triazin-5-yl}-2-fluorophenyl)-N′-[2-fluoro-5-(trifluoromethyl)phenyl]urea], the IC50 (bounds given in nM) is below 10 nM.

`CN1CCN(Cc2c(C#N)c(-c3ccc(NC(=O)Nc4cc(C(F)(F)F)ccc4F)cc3)c3c(N)ncnn23)CC1` [Example 55, N-(4-4-amino-6-cyano-7-[(4-methylpiperazin-1-yl)methyl]-pyrrolo[2,1-f][1,2,4]triazin-5-ylphenyl)-N′-[2-fluoro-5-(trifluoromethyl)-phenyl]urea] yielded an IC50 (bounds given in nM) of 10 to 100 nM.

Consider `CON(C)C(=O)c1c(-c2ccc(NC(=O)Nc3cc(C(F)(F)F)ccn3)cc2)c2c(N)ncnn2c1CN1CCN(C)CC1` [Example 94, 4-amino-N-methoxy-N-methyl-7-[(4-methylpiperazin-1-yl)methyl]-5-{4-[({[4-(trifluoromethyl)pyridin-2-yl]amino}-carbonyl)amino]-phenyl}pyrrolo[2,1-f][1,2,4]triazine-6-carboxamide], for which the IC50 runs as follows: (bounds given in nM) above 100 nM; (upper bound in μM) below 1000 nM.

Compound `CS(=O)(=O)N1CCN(Cc2c(CC#N)c(-c3ccc(NC(=O)Nc4cc(C(F)(F)F)ccn4)cc3)c3c(N)ncnn23)CC1` [Example 67, N-[4-(4-amino-6-(cyanomethyl)-7-{[4-(methylsulfonyl)piperazin-1-yl]methyl}pyrrolo[2,1-f][1,2,4]triazin-5-yl)phenyl]-N′-[4-(trifluoromethyl)pyridin-2-yl]urea] returned an IC50 (bounds given in nM) of 10 to 100 nM.

`Nc1ncnn2c(CN3CCOCC3)c(Cl)c(-c3ccc(NC(=O)Nc4cc(C(F)(F)F)ccc4Cl)c(F)c3)c12` [Example 159, N-{4-[4-amino-6-chloro-7-(morpholin-4-ylmethyl)pyrrolo[2,1-f][1,2,4]triazin-5-yl]-2-fluorophenyl}-N′-[2-chloro-5-(trifluoromethyl)-phenyl]urea] yielded an IC50 (bounds given in nM) of 10 to 100 nM.

The compound `CC(=O)N1CCN(Cc2c(-c3cnco3)c(-c3ccc(NC(=O)Nc4cc(C(F)(F)F)ccc4F)cc3)c3c(N)ncnn23)CC1` [Example 32, N-4-[7-[(4-acetylpiperazin-1-yl)methyl]-4-amino-6-(1,3-oxazol-5-yl)pyrrolo[2,1-f][1,2,4]triazin-5-yl]phenyl-N′-[2-fluoro-5-(trifluoromethyl)phenyl]urea] yielded an IC50 (bounds given in nM) below 10 nM.

`CC(C)(C)C(=O)c1c(-c2ccc(NC(=O)Nc3cc(C(F)(F)F)ccn3)cc2)c2c(N)ncnn2c1CN1CCOCC1` [Example 92, N-{4-[4-amino-6-(2,2-dimethylpropanoyl)-7-(morpholin-4-ylmethyl)pyrrolo[2,1-f][1,2,4]triazin-5-yl]phenyl}-N′-[4-(trifluoromethyl)-pyridin-2-yl]urea]: the IC50 runs as follows: (bounds given in nM) above 100 nM; (upper bound in μM) below 1000 nM.

Consider `CON(C)C(=O)c1c(-c2ccc(NC(=O)Nc3cc(C(F)(F)F)ccn3)cc2)c2c(N)ncnn2c1CN1CCOCC1` [Example 97, 4-amino-N-methoxy-N-methyl-7-(morpholin-4-ylmethyl)-5-{4-[({[4-(trifluoromethyl)pyridin-2-yl]amino}carbonyl)-amino]phenyl}pyrrolo[2,1-f][1,2,4]triazine-6-carboxamide], for which the IC50 (bounds given in nM) is above 100 nM and the IC50 (upper bound in μM) was below 1000 nM.

On to `COCc1c(-c2ccc(NC(=O)Nc3cc(C(F)(F)F)ccc3F)cc2)c2c(N)ncnn2c1C#N` [Example 11, N-4-[4-amino-7-cyano-6-(methoxy-methyl)pyrrolo[2,1-f][1,2,4]triazin-5-yl]phenyl-N′-[2-fluoro-5-(trifluoromethyl)-phenyl]urea], for which the IC50 is above 100 nM (bounds given in nM) and below 1000 nM (upper bound in μM).

In turn, `CC(=O)c1c(-c2ccc(NC(=O)Nc3cc(C(F)(F)F)ccn3)cc2)c2c(N)ncnn2c1CN1CCOCC1` [Example 88, N-{4-[6-acetyl-4-amino-7-(morpholin-4-ylmethyl)pyrrolo[2,1-f][1,2,4]triazin-5-yl]phenyl}-N′-[4-(trifluoromethyl)-pyridin-2-yl]urea] gave an IC50 (bounds given in nM) of 10 to 100 nM.

As for `CCOC(=O)c1c(-c2ccc(NC(=O)Nc3cc(C(F)(F)F)ccn3)cc2)c2c(N)ncnn2c1C#N` [Example 6, ethyl 4-amino-7-cyano-5-{4-[({[4-(trifluoromethyl)pyridin-2-yl]amino}carbonyl)amino]phenyl}pyrrolo[2,1-f][1,2,4]triazine-6-carboxylate], the IC50 is above 100 nM (bounds given in nM) and below 1000 nM (upper bound in μM).

For the compound `COCc1c(-c2ccc(NC(=O)Nc3cccc(C(C)(C)C)c3)c(F)c2)c2c(N)ncnn2c1CN1CCOCC1` [Example 138, N-{4-[4-amino-6-(methoxymethyl)-7-(morpholin-4-ylmethyl)-pyrrolo[2,1-f][1,2,4]triazin-5-yl]-2-fluorophenyl}-N′-(3-tert-butylphenyl)urea], the IC50 (bounds given in nM) is below 10 nM.

As to `CC(=O)c1c(-c2ccc(NC(=O)Nc3cc(C(F)(F)F)ccc3F)c(F)c2)c2c(N)ncnn2c1CN1CCOCC1` [Example 57, N-4-[6-acetyl-4-amino-7-(morpholin-4-ylmethyl)pyrrolo[2,1-f]-[1,2,4]triazin-5-yl]-2-fluorophenyl-N′-[2-fluoro-5-(trifluoromethyl)phenyl]urea], the IC50 (bounds given in nM) fell in the range of 10 to 100 nM.

On to `Nc1ncnn2c(CN3CCOCC3)c(Cl)c(-c3cc(F)c(NC(=O)Nc4cc(C(F)(F)F)ccc4F)cc3F)c12` [Example 156, N-{4-[4-amino-6-chloro-7-(morpholin-4-ylmethyl)pyrrolo[2,1-f][1,2,4]triazin-5-yl]-2,5-difluorophenyl}-N′-[2-fluoro-5-(trifluoromethyl)-phenyl]urea], for which the IC50 runs as follows: (bounds given in nM) above 100 nM; (upper bound in μM) below 1000 nM.

For the compound `COCc1c(-c2ccc(NC(=O)Nc3cc(C)ccc3F)c(F)c2)c2c(N)ncnn2c1CN1CCOCC1` [Example 131, N-{4-[4-amino-6-(methoxymethyl)-7-(morpholin-4-ylmethyl)-pyrrolo[2,1-f][1,2,4]triazin-5-yl]-2-fluorophenyl}-N′-(2-fluoro-5-methyl-phenyl)urea], under “bounds given in nM”, the IC50 was below 10 nM.

Turning to `COCc1c(-c2ccc(NC(=O)Nc3cc(C(F)(F)F)ccc3F)cc2)c2c(N)ncnn2c1COC` [Example 24, N-{4-[4-amino-6,7-bis(methoxymethyl)pyrrolo[2,1-f]-[1,2,4]triazin-5-yl]phenyl}-N′-[2-fluoro-5-(trifluoromethyl)phenyl]urea], the IC50 (bounds given in nM) is 10 to 100 nM.
